One assay relates to C57BL/6 mice. Kind of assay: Porsolt forced swim test. The class given is in vivo. Particulars: CLX 10 mg/kg; CBD 5 mg/kg i.p. The source says: All experiments were approved by the Hebrew University of Jerusalem Ethics Committee on Animal Care and Use. […] All data are presented as mean ± SEM.
In another assay the test system is BV2 microglial cells. Kind of assay: LPS-induced IL-6 release by BV2 microglia cell cultures (ELISA). The assay is classed as cell-based, murine. Particulars: for IC50: Mus musculus. The method, then:
The BV2 murine microglial cell line is used in these studies.
The BV2 cells are cultured at 37° C. in a humidified atmosphere with 5% CO2 in high D-glucose (4.5 g/L) Dulbecco’s modified Eagle’s medium (Sigma, Rehovot, Israel) supplemented with 5% heat-inactivated fetal bovine serum, streptomycin (100 µg/ml), and penicillin (100 units/ml) and sodium pyruvate (1 mM; all from Biological Industries Ltd., Kibbutz Beit Haemek, Israel). 24 hours before experiments with LPS stimulation, the BV2 cells are split into 24 well plates, 2×10^5 cells per well, covered with 1 ml of growth medium and allowed to attach overnight. 24 hr before experiments with α-synuclein, the BV2 cells are split into 96-well plates, 50,000 (5×10^4) cells per well, covered with 200 µl of growth medium and allowed to attach overnight. Cultures of BV2 microglia cells are first treated by an individual cannabinoid, or terpene or flavonoid selected from: Cannabidiol (CBD), Δ-9-tetrahydrocannabinol (THC), Δ-8-tetrahydrocannabinol (THC), cannabigerol (CBG), cannabichromene (CBC), cannabigerolic acid (CBGA), Cannabidiolic acid (CBDA), THC acid (THCA), cannabichromenic Acid (CBCA), Cannabidivarin (CBDV), tetrahydrocannabivarin (THCV), Cannabichromevarin (CBCV), Cannabichromerocin ([…]), Cannabivarin (CBV), Cannabicitran (CBT), Cannabinol (CBN), Cannabicyclol (CBL), Cannabigerorcin (CBGO), Cannabinodiol (CBND), β-caryophyllene, β-elemene, β-myrcene, linalool, α-pinene, β-pinene, eucalyptol, alpha-terpineol, valencene, geraniol (lemonol), bisabolol, nerolidol, ocimene, terpinolene, humulene, α-terpinene, camphene, fenchol, α-phellandrene, Δ3-carene, γ-cardinene, sabinene, limonene, β-amyrin, cycloartenol, cannflavin A, cannflavin B, kaempferol, quercetin, luteolin, apigenin, canniprene, orientin, β-sitosterol, vitexin, isovitexin, and chrysin. Additional cultures of BV2 microglia cells are treated by an individual cannabinoid, with at least one additional cannabinoid, and/or terpene, and/or flavonoid, and/or celecoxib. Additional cultures are exposed to the vehicle of these compounds (cremophor, ethanol and PBS, 1:1:18 (v/v/v)) (FIG. 2A). In some studies, cultures of BV2 microglia cells are treated by a specific whole plant cannabis extract, with or without supplementation with cannabinoid(s), and/or terpene(s) and/or flavonoid(s), and/or celecoxib (FIG. 2B).
For each individual cannabinoid mentioned above, 3-4 concentrations are used, ranging from 0.1 to 10 µM. For ultra-low dose Δ9-THC the concentration used is 0.01 µM. For each individual terpene or flavonoid mentioned above, 3-4 concentrations are used, ranging from 1 to 50 µM. For celecoxib, 3-4 concentrations are used, ranging from 0.1 to 10 µM. Two hours following the treatment, the cultures are exposed to one of the following microglia stimulators: LPS (Sigma L2630; Escherichia coli serotype O111:B4) is dissolved in D-PBS (Sigma, D8537) to a pre-stock concentration of 1 mg/ml, aliquoted and stored at -80° C. Stock solution of LPS at 10 ug/ml is prepared using sterile D-PBS, followed by filtering via 0.22 µm filter membrane, aliquoting and storing in -20° C. LPS is applied into the cell medium at a final concentration of 100 ng/ml. Poly I:C (Sigma, P1530) was first dissolved in sterile, molecular grade water to the concentration of 10 mg/ml (following the manufacturer’s instructions). This stock solution was further diluted to the concentration of 1 mg/ml in sterile PBS, and the aliquots stored in -20 °C.

In the next assay the test system is LPS-injected mice. Kind of assay: Social exploration test in the LPS-induced model of depression. The assay is classed as in vivo. The source says: In a preliminary screening experiment, subjects were 4-6 months-old male C57BL/6 (Jackson Laboratories, USA). Animals were housed 2-3/cage, kept in an air-conditioned room (23+°C) and given ad libitum access to food and water. The mice were kept in a reversed light/dark cycle, with lights off from 7 a.m. to 7 p.m. All experiments were approved by the Hebrew University of Jerusalem Ethics Committee on Animal Care and Use. In preparation for the Sucrose Preference Test, mice were habituated 2-3 times to sucrose drinking, by exposing them overnight to two graduated tubes, one containing water and the other containing sucrose solution (1%, w/v). Water and sucrose consumption were measured, and sucrose preference was computed by dividing the amount of sucrose consumed by drinking (ml sucrose) by the total drinking volume (ml of sucrose + water). One day later, the weight of the mice and the food in their cages was weighed for later analysis of food consumption and body weight changes. […] In this test, the measured locomotor activity reflects not only motor capacity, but particularly the innate motivation for spatial exploration (which increases the distance travelled) and the anxiety level (which reduces the distance travelled, in general, and particularly the distance and time spent in the center of the open field). […] The distance travelled (cm), the velocity of the movement (cm/second), the time spent (seconds), distance travelled (cm) in the center area of the arena, as well as the number of entries from the perimeter area into the center of the arena were automatically measured over a 4-minute period, using EthoVision XT video tracking system and software (Noldus, The Netherlands). […] Social exploration, defined as the time of near contact between the nose of the subject and the juvenile in the small cage was recorded for 4 min, using computerized in-house software. Sucrose preference was assessed, as described above, between 8 to 27 hr post LPS injection. […]

Read-outs that look alike come from different tables or passages of the source.

For the compound `C=C(C)[C@@H]1CCC(C)=C[C@H]1c1c(O)cc(CCCCC)cc1O` [CBD, cannabidiol], the “immobility time, each compound by itself” value in the assay with C57BL/6 mice is reported as “no significant effects”. Besides, the “release of IL-6” value with BV2 microglial cells (Example 3, 10 µM) is listed as “significantly inhibited”. Further, the “IL-6 secretion vs Veh plus LPS” value in the assay on BV2 microglial cells (Example 6, CBD or CBDV given by themselves) is “no significant effect”. For the same compound, the “LPS-induced IL-6 release” value in the assay on BV2 microglial cells (Example 25, CBD, CannA, CannB 5 and 10 µM, CannC 10 µM) was “significantly decreased”. For the same compound, the IC50 in the assay with BV2 microglial cells (BV-2, Example 6 (FIG. 7D), by itself, read-out: IC50 for inhibiting LPS-induced IL-6 release) is 4.3 µM; in the assay with BV2 microglial cells (BV-2, Example 6, addition of 1 µM CBDV, read-out: CBD IC50, LPS-induced IL-6 release) it was 3.1 µM; with BV2 microglial cells (BV-2, Example 6, addition of 2.5 µM CBDV, read-out: CBD IC50, LPS-induced IL-6 release), 2 µM; in the assay with BV2 microglial cells (BV-2, Example 6, addition of 5 µM CBDV, read-out: CBD IC50, LPS-induced IL-6 release), 1.7 µM; in the assay on BV2 microglial cells (BV-2, Example 25 (FIG. 25E), extracts calculated on dominant cannabinoid, read-out: IC50 for IL-6 inhibition) it was 5.9 µM. Moreover, in the assay with LPS-injected mice (adult (6-9 months-old) male mice, acute CBD), the “social exploration vs LPS-injected vehicle-treated mice” value is “significantly increased social interest”. Besides, the social exploration entry in the assay on LPS-injected mice (adult and young adult female mice, acute CBD, saline or LPS) is “None of these parameters was influenced by treatment with CBD”. For the same compound, in the assay on LPS-injected mice (young-adult male mice, CBD 30 mg/kg i.p. 3 consecutive days), the “LPS-induced reduction in social exploration” value is “no effects”.

For orientation: IC50 means the concentration that inhibits the measured activity by half.

The values above are taken from patent US20230270764A1, “COMPOSITION COMPRISING CANNABINOIDS, TERPENES, AND FLAVONOIDS FOR TREATING DEPRESSION” (priority 2020, published 2023).
